The results in this text go back to PubChem BioAssay (NCI).

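Exposure lasted 48 hours, with cells grown in 96-well plates and compounds tested at five concentrations. TGI: concentration producing complete growth inhibition.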 Bounds are passed on as bounds.

Among the test systems are HT29 colon; SK-MEL-28 melanoma; A549 NSCLC; HOP-92 NSCLC; ACHN renal; MOLT-4 leukemia; SR leukemia; RXF 393 renal; HOP-62 NSCLC.
Assay in all cases: DTP human tumour cell line panel, 48 h

In general, TGI refers to the concentration at which net growth stops.

Regarding `CCCCCCCCCOC(=S)NC`, the TGI with HT29 colon was found to be 42.2 µM; in the experiment with SK-MEL-28 melanoma it was 58.5 µM; in the experiment on A549 NSCLC, 65.1 µM; with HOP-92 NSCLC, 42.5 µM; in the experiment with ACHN renal, 37.6 µM; in the experiment with MOLT-4 leukemia it was 46.5 µM.

With `CCCC(OCC)(OCC)OCC`, the TGI in the experiment with HT29 colon, with SK-MEL-28 melanoma, with A549 NSCLC, in the experiment on SR leukemia, with HOP-92 NSCLC and in the experiment with RXF 393 renal was greater than 100 µM throughout. In addition, the TGI with ACHN renal, with HOP-62 NSCLC and with MOLT-4 leukemia was greater than 100 µM throughout.

In the case of `c1cncc(C2c3[nH]c4ccccc4c3CCN2CCCN2CCCCC2)c1` (stereo not drawn), the TGI in the experiment with HT29 colon is greater than 100 µM; in the experiment on SK-MEL-28 melanoma it was 47 µM; with A549 NSCLC, greater than 100 µM; in the experiment on SR leukemia it was greater than 100 µM; with HOP-92 NSCLC, greater than 100 µM; with RXF 393 renal, greater than 100 µM. For the same compound, the TGI in the experiment on ACHN renal, with HOP-62 NSCLC and with MOLT-4 leukemia was greater than 100 µM each time.

Take `CCOC(=O)C1Cc2c(ccc(OC)c2OC)C(=O)C1N` (stereo not drawn): the TGI in the experiment with HT29 colon, in the experiment on SK-MEL-28 melanoma, in the experiment with A549 NSCLC, in the experiment on SR leukemia, in the experiment on HOP-92 NSCLC and in the experiment on RXF 393 renal was greater than 100 µM throughout. Moreover, the TGI in the experiment with ACHN renal, in the experiment on HOP-62 NSCLC and in the experiment on MOLT-4 leukemia was greater than 100 µM in each case.

For `Cc1cc(C)c(C(=O)O)c(N)c1O`, the TGI with HT29 colon, with SK-MEL-28 melanoma, with A549 NSCLC, in the experiment on SR leukemia, with RXF 393 renal and in the experiment with ACHN renal was greater than 100 µM each time. Also, the TGI in the experiment with HOP-62 NSCLC and in the experiment on MOLT-4 leukemia was greater than 100 µM in each case.

Turning to `C/C(CC(=O)CCCC(=O)Nc1ccc(Cl)cc1Cl)=N/NC(=O)CC#N`, the concentration for total growth inhibition (TGI) in the experiment on HT29 colon, in the experiment with SK-MEL-28 melanoma, in the experiment on A549 NSCLC, in the experiment on RXF 393 renal, in the experiment with ACHN renal and in the experiment with MOLT-4 leukemia was greater than 100 µM in each case.

On to `COc1cccc(/C=C(/C(=O)O)c2cc(OC)c(OC)c(OC)c2)c1`, for which the TGI in the experiment on HT29 colon, with SK-MEL-28 melanoma, in the experiment with A549 NSCLC, in the experiment with HOP-92 NSCLC, with RXF 393 renal and with ACHN renal was greater than 100 µM throughout. Besides, the total growth inhibition concentration (TGI) in the experiment on HOP-62 NSCLC and in the experiment on MOLT-4 leukemia was greater than 100 µM in each case.

Take `Nn1c(CCCl)nc2c(Br)cc(Br)cc2c1=O`: the TGI in the experiment with HT29 colon was greater than 100 µM; with SK-MEL-28 melanoma it was greater than 100 µM; in the experiment on A549 NSCLC, greater than 100 µM; with SR leukemia, 72 µM; with HOP-92 NSCLC it was greater than 90.8 µM; with RXF 393 renal it was greater than 100 µM. Further, the TGI in the experiment with ACHN renal was greater than 74.7 µM; with HOP-62 NSCLC it was 71.8 µM; in the experiment on MOLT-4 leukemia, 61.3 µM.

Regarding `CCOC(=O)/C(=C/c1ccc(OC)c(OC)c1)C(=O)c1ccccc1`, the TGI was determined as 30.8 µM in the experiment on HT29 colon; 28.5 µM in the experiment with SK-MEL-28 melanoma; 90.2 µM with A549 NSCLC; 68.1 µM in the experiment with ACHN renal; 35.6 µM in the experiment with HOP-62 NSCLC; 48.9 µM with MOLT-4 leukemia.

Regarding `OCCN1CCN(CCO)Cc2ccccc2OCCOc2ccccc2C1`, the TGI with HT29 colon, with SK-MEL-28 melanoma, with A549 NSCLC, in the experiment with SR leukemia, with HOP-92 NSCLC and in the experiment with RXF 393 renal was greater than 100 µM each time. The TGI with ACHN renal, in the experiment with HOP-62 NSCLC and in the experiment on MOLT-4 leukemia was greater than 100 µM in each case.

Consider `COc1cc(C(=O)C/C(CCC(=O)Nc2ccccc2[N+](=O)[O-])=N\NC(=O)C(N)=O)ccc1O`, for which the TGI in the experiment with HT29 colon, in the experiment with SK-MEL-28 melanoma, with A549 NSCLC, in the experiment on SR leukemia, with HOP-92 NSCLC and with RXF 393 renal was greater than 100 µM throughout. Also, the TGI with ACHN renal, in the experiment with HOP-62 NSCLC and in the experiment on MOLT-4 leukemia was greater than 100 µM throughout.

Regarding `COC(=O)C1=CC(O)CCC1c1ccc(OC)cc1` (stereo not drawn), the TGI with HT29 colon, with SK-MEL-28 melanoma, with A549 NSCLC, in the experiment with SR leukemia, in the experiment on HOP-92 NSCLC and with RXF 393 renal was greater than 100 µM throughout. Further, the TGI with ACHN renal, in the experiment with HOP-62 NSCLC and in the experiment with MOLT-4 leukemia was greater than 100 µM each time.

Consider `CSc1nc(NC2OCC(OC(C)=O)C(OC(C)=O)C2OC(C)=O)c(N=CC=Nc2c(NC3OCC(OC(C)=O)C(OC(C)=O)C3OC(C)=O)nc(SC)n(C)c2=O)c(=O)n1C` (stereo not drawn), for which the TGI with HT29 colon, in the experiment on SK-MEL-28 melanoma, with A549 NSCLC, in the experiment on SR leukemia, in the experiment on HOP-92 NSCLC and in the experiment on RXF 393 renal was greater than 100 µM in each case. Moreover, the TGI with ACHN renal and in the experiment on HOP-62 NSCLC was greater than 100 µM in each case.

Regarding `C=C(C)C1CC=C(C(=O)O)CC1` (stereo not drawn), the TGI was greater than 5000 µM in the experiment with HT29 colon; 2640 µM in the experiment on SK-MEL-28 melanoma; 3470 µM with A549 NSCLC; 4650 µM in the experiment on SR leukemia; 3930 µM in the experiment with HOP-92 NSCLC; 3110 µM in the experiment on RXF 393 renal. The TGI is greater than 5000 µM with ACHN renal, 1770 µM with HOP-62 NSCLC and greater than 5000 µM in the experiment with MOLT-4 leukemia.

`CC1(C)CCC(=O)c2c(O)ccc(O)c21`: the TGI in the experiment on HT29 colon is greater than 100 µM; in the experiment on SK-MEL-28 melanoma, greater than 100 µM; in the experiment on A549 NSCLC it was greater than 100 µM; in the experiment with HOP-92 NSCLC it was 76.9 µM; in the experiment on RXF 393 renal, 77.7 µM; with MOLT-4 leukemia, greater than 100 µM.

With `COc1ccc2cc(C(=O)c3ccccc3C(=O)O)ccc2c1`, the TGI with HT29 colon, with SK-MEL-28 melanoma, in the experiment with A549 NSCLC, in the experiment on SR leukemia, in the experiment on RXF 393 renal and in the experiment with ACHN renal was greater than 100 µM throughout. Moreover, the TGI in the experiment on HOP-62 NSCLC and in the experiment on MOLT-4 leukemia was greater than 100 µM in each case.
